One data set concerns A549 cells. The data set can be described thus: Growth inhibition of A549 human lung carcinoma cells (sulforhodamin-B method). It counts as cell-based. Here is the method:
(§1) The tumor growth inhibiting activity of the substances was determined on human tumor cells in standardized in vitro test systems. In the screening tests, the substances gave IC50-values in a concentration range of 0.1 nM to 10 μM.
(§2) A549 cells derived from a human lung carcinoma plated at a density of 20,000 cells/ml in 12-well plastic dishes. Cultivation occurred in Richters IMEM-ZO nutrient medium with 5% foetal calf serum (FCS) in a tissue culture incubator with a gas mixture of 5% CO2 and 95% air at a temperature of 37° C. One day after plating, the culture medium was aspirated from the cells and replaced by fresh medium which contained the respective concentrations of the test substances. For the individual concentrations and the controls without test substances, three-fold batches were done for each. Three days after the beginning of treatment, the medium was again renewed with the test compounds. After four days of substance incubation, the test was ended and the protein amount in the individual wells was determined with the sulforhodamin-B-method (according to P. Skehan et al.: New Colorimetric Cytotoxicity Assay for Anticancer-Drug Screening. J. Natl. Cancer Inst. 82: 1107-1112, 1990). The IC50-values (defined as that concentration in which the cell growth was inhibited by 50%) was taken from the dose-response curves and given as a comparative measurement for the activity of the test compounds.

In another data set the test system is HepG2 cells. The data set can be described thus: Growth inhibition of HepG2 human liver carcinoma cells (sulforhodamin-B method). The class given is cell-based. The method, then: as §1
as §2, with “HepG2” for “A549”, “liver” for “lung”, “[…]” for “20,000”, “six” for “four”

The subject of data set [1] is freshly isolated lymphocytes. As to the kind of experiment: Immunosuppressing activity on freshly isolated spleen lymphocytes (flow cytometry, vital cells). It counts as cell-based. Conditions: Lymphocyte, 48 h; Swiss mouse spleen lymphocytes, 2 days incubation, percentage of vital cells by flow-through cytometer. From the text: Many anti-tumor agents have not only a cytotoxic effect on tumor cells, but also on the blood cell system. This leads to a weakening of the immune defense, which can, in turn, be specifically employed to suppress the rejection reaction after an organ transplantation for example. Also use of the main compounds, optionally in combination with other immunological diseases (for example, psoriasis or autoimmune diseases) seems likely. In order to test the possibility for a therapeutic use in illnesses of this type, the substance activity was tested on freshly isolated lymphocytes as follows:
The spleen of a Swiss mouse served as a lymphocyte source. The lymphocyte population was isolated from the spleen cell […] suspension over a ficoll gradient and taken up in IMEM-ZO culture medium with 0.1% dextran 70,000 and 2% foetal calf serum. The cells were plated at a density of ca. 500,000 cells/well/ml in a 12-well plate, 1 ml doubly concentrated test substance solution was pipetted per well and this was subsequently incubated in a tissue culture incubator at 37° C. and 5% CO2. After 2 days, a 1 ml-aliquot with 5 μl of the fluorescent dye solutions propidium iodide (8 mg/ml) and 3,3′-dihexyloxacarbocyanin iodide (40 μg/ml) each was added per well, and incubated for 3 minutes at room temperature. Subsequently, 10,000 cells per each sample were measured on a flow-through cytometer and the percentage amount of vital cells in the population was determined. By means of the dose-response curves, IC50-values were calculated which were also employed in the following Tables for the characterization of the individual substances: […]

The test system of a further data set is THP-1 cells. The data set can be described thus: Growth inhibition of THP-1 human monocytic leukemia cells (WST-1 reagent). It counts as cell-based. Here is the method: as §1
THP-1 cells derived from a human monocytic leukemia plated at a density of 200,000 cells/ml in 96-well plastic dishes. Cultivation occurred in RPMI 1640 nutrient medium with 10% foetal calf serum (FCS) in a tissue culture incubator with a gas mixture of 5% CO2 and 95% air at a temperature of 37° C. For the individual concentrations and the controls without test substances as well as for the background with nutrient medium but without cells, three-fold batches were done for each. After four days of substance incubation 20 μl WST-1 reagent (Boehringer Mannheim) was respectfully pipetted in each individual well. After 30 to 60 minute incubation in the tissue culture incubator at 37° C. and 5% CO2, the light extinction was measured in an ELISA reader at 450 nm wave length. The backgrounds were each subtracted from the typical measured valves. The IC50-values (defined as that concentration in which the cell growth was inhibited by 50%) was taken from the dose-response curves and given as a comparative measurement for the activity of the test compounds.
(In general: Tetrazolium assays rely on reduction of a dye to a coloured formazan, in cell work by metabolically active cells.)

The mark [2] stands for this setting: 96 h, A549 cells, four days of substance incubation, protein amount by sulforhodamin-B, read-out: IC50-value.
The mark [3] stands for this setting: 144 h, HepG2 cells, six days of substance incubation, protein amount by sulforhodamin-B, read-out: IC50-value.

Read-outs that look alike come from different tables or passages of the source.

As usually defined, the melting point is the temperature of the solid-liquid transition. Turning to `O=C(C=Cc1cccnc1)NCCCCNC(=O)[C@@H]1C[C@H]1c1ccccc1` (relative stereo) [Substance 250, N-[4-(trans-2-phenyl-cyclopropyl-carbonylamino)-butyl]-3-pyridin-3-yl-acrylamide], the melting point lay within 194 to 196 °C. For orientation: IC50 means the midpoint of a concentration-inhibition curve. Regarding `O=C(C=Cc1cccnc1)NCCCCCCCc1ccccc1` [Substance 3, N-(7-phenyl-heptyl)-3-pyridin-3-yl-acrylamide], the melting point fell in the range of 61 to 63 °C. Also, the IC50 in the data set on A549 cells (setting [2]) amounted to 8 µM. The molecule `O=C(C=Cc1cccnc1)NCCCCC(O)(c1ccccc1)c1ccccc1` [Substance 27, N-(5-hydroxy-5,5-diphenyl-pentyl)-3-pyridin-3-yl-acrylamide] gave a melting point of 157 to 159 °C. The half-maximal inhibitory concentration (IC50) with HepG2 cells (setting [3]) stood at 0.04 µM. Regarding `O=C(C=Cc1cccnc1)NCCCCCC(O)(c1ccccc1)c1ccccc1` [Substance 31, N-(6-hydroxy-6,6-diphenyl-hexyl)-3-pyridin-3-yl-acrylamide], the melting point was in the range of 145 to 147 °C. The same measure, in the same setting: next, `O=C(C=Cc1cccnc1)NCCCCCCCC(O)(c1ccccc1)c1ccccc1` [Substance 41, N-(8-hydroxy-8,8-diphenyloctyl)-3-pyridin-3-yl-acrylamide]: 139 to 140 °C. Consider `O=C(C=Cc1cccnc1)NCCCCn1cnc(-c2ccccc2)c1-c1ccccc1` [Substance 63, N-[4-(4,5-diphenyl-imidazol-1-yl)-butyl]-3-pyridin-3-yl-acrylamide], for which the melting point came to 183 °C. Further, the IC50 with HepG2 cells (setting [3]) was 0.008 µM. Besides, the half-maximal inhibitory concentration (IC50) in data set [1] stood at 0.0003 µM. Consider `O=C(C=Cc1cccnc1)NCCCCC=C(c1ccccc1)c1ccccc1` [Substance 120, N-(6,6-diphenyl-hex-5-enyl)-3-pyridin-3-yl-acrylamide], for which the melting point was 120 to 121 °C. In addition, in the data set with HepG2 cells (HepG2, hepatocelluar carcinoma, methods of point 1, read-out: IC50-values), the IC50 is 0.0005 µM. Moreover, the IC50 with A549 cells (A549, lung carcinoma, methods of point 1, read-out: IC50-values) stood at 0.002 µM. The IC50 in the data set on THP-1 cells (96 h, THP-1 cells, four days of substance incubation, WST-1, extinction at 450 nm, read-out: IC50-value) was 0.0002 µM. Besides, the IC50 in the data set on THP-1 cells (THP-1, monocytic leukemia, methods of point 1, read-out: IC50-values) was determined as 0.0002 µM. In data set [1], the half-maximal inhibitory concentration (IC50) was 0.0005 µM. As for `O=C(C=Cc1cccnc1)NCCCCNC(c1ccccc1)c1ccccc1` [Substance 187, N-[4-(benzhydryl-amino)-butyl]-3-pyridin-3-yl-acrylamide], the melting point was 101 to 102 °C. Besides, in the data set on HepG2 cells (setting [3]), the IC50 was determined as 0.2 µM. Further, the IC50 in the data set with A549 cells (setting [2]) came to 0.4 µM. On to `CN(CCCCNC(=O)C=Cc1cccnc1)CCN(C)C(c1ccccc1)c1ccccc1` [Substance 193, N-(4-{[2-(benzhydryl-methyl-amino)-ethyl]-methyl-amino}-butyl)-3-pyridin-3-yl-acrylamide], for which the melting point is 89 to 91 °C. Besides, the IC50 with A549 cells (setting [2]) turned out to be 1 µM. For `O=C(C=Cc1cccnc1)NCCCCN1CCc2ccccc2C(c2ccccc2)C1` (centres unmarked) [Substance 207, N-[4-(1-phenyl-1,2,4,5-tetrahydrobenzo[d]azepin-3-yl)-butyl]-3-pyridin-3-yl-acrylamide], the melting point lay in the range of 92 to 94 °C.

For `O=C(C=Cc1cccnc1)NCCCCNC(=O)C(c1ccccc1)c1ccccc1` [Substance 247, N-(4-diphenylacetylamino-butyl)-3-pyridin-3-yl-acrylamide], the melting point is 171 to 172 °C. Moreover, the IC50 with A549 cells (setting [2]) was 2 µM. In data set [1], the half-inhibitory concentration (IC50) amounted to 0.08 µM.

As to `O=C(C=Cc1cccnc1)NCCCCNC(=O)N(c1ccccc1)c1ccccc1` [Substance 268, N-[4-(3,3-diphenyl-ureido)-butyl]-3-pyridin-3-yl-acrylamide], the melting point lay in the range of 123 to 125 °C.

Turning to `O=C(C=Cc1cccnc1)NCCCCCCNC(=O)N(c1ccccc1)c1ccccc1` [Substance 270, N-[6-(3,3-diphenyl-ureido)-hexyl]-3-pyridin-3-yl-acrylamide], the melting point lay within 105 to 107 °C. For `O=C(C=Cc1cccnc1)NCCCCCCNC(=O)N1c2ccccc2CCc2ccccc21` [Substance 295, N-[6-(10,11-dihydro-dibenzo[b,f]azepin-5-yl-carbonylamino)-hexyl]-3-pyridin-3-yl-acrylamide], the melting point lay in the range of 97 to 99 °C. Still for that read-out and setting: next, `Cc1ccc(S(=O)(=O)NCCCCCCNC(=O)C=Cc2cccnc2)cc1` [Substance 310, 3-Pyridin-3-yl-N-[6-(tosylamino)-hexyl]-acrylamide]: 91 to 93 °C.

The values are drawn from US7320993B1, “Aryl-substituted pyridylalkane, alkene, and alkine carboxamides useful as cytostatic useful as cytostatic and immuosuppressive agents” (Astellas Deutschland GmbH, priority 1997, dated 2008).
